Tested on: GEMIN1
Test: AP-MS chemical proteomics, GEMIN1
Format: binding, human
Settings: biotin-Cmpd 1 pulldown, competition with 200 μM compound 1 relative to DMSO, U2OS lysate
Experimental: The samples for AP-MS were prepared following pulldown procedure as previously described with minor modifications. Briefly, U2OS cells were lysed in RIPA buffer and the cell lysate was equally divided into two groups: (1) DMSO group (control group): the cell lysate was incubated with 20 μM biotin-labeled compound 1; (2) Cpmd 1 group (sample group): the cell lysate was incubated with 20 μM biotin-labeled compound 1 and 200 μM free compound 1. Each group contains three biological replicates. They were incubated overnight at 4 °C, then 30 μL streptavidin beads (Thermo Fisher, 20353) was added and incubated at 4 °C for 1 h. The beads were then washed with RIPA buffer for 3 times, 10 min/time. […]
Samples were analyzed by nanoLC-MS/MS (nanoRSLC, Thermo Fisher) using an Aurora series (Ion Opticks) reversed phase HPLC column (25 cm length × 75 µm inner diameter) and directly injected to an Orbitrap Eclipse (Thermo Fisher) using a 120 min gradient (mobile phase A = 0.1% formic acid, mobile phase B = 99.9% acetonitrile with 0.1% formic acid; hold 2% B for 5 min, 2–6% B in 0.1 min, 6–25% in 100 min, 25–50% in 15 min) at a flow rate of 350 nL/min. Eluted peptide ions were analyzed using a data-dependent acquisition (DDA) method with resolution settings of 120,000 and 15,000 (at m/z 200) for MS1 and MS2 scans, respectively. […]

## Cn1c2c(c(=N)c3c1CCC3)CCC2 [Compound 1, 4-methyl-2,3,4,5,6,7-hexahydrodicyclopenta[b,e]pyridin-8(1H)-imine]
  log2 FC (Cmpd 1/DMSO), GEMIN1: −6.9

Reference: PMC9481570, “A small molecule antagonist of SMN disrupts the interaction between SMN and RNAP II” (Nature Communications, 2022)
